From US11559512B2, “Composition for prevention, alleviation, and/or treatment of heat illness” (priority 2017, dated 2023)

Assays:
[1] = system: IL-6; assay: IL-6 concentration in supernatant of lymphocytes under heat stress load (ELISA); type: cell-based, human
Description: 10 mL of human peripheral blood was collected and anti-coagulated with heparin, and 10 mL of PBS(−) was added thereto and stirred. 15 mL of Lymphocyte Separation Medium 1077 (PromoCell GmbH) was layered thereon so as not to mix blood thereinto, followed by blood separation at 1600 rpm for 30 minutes in a centrifuge. The mononuclear cell layer thus separated was collected into a dropper, added to 20 mL of a culture medium, and centrifuged at 1500 rpm for 5 minutes in a centrifuge. The supernatant was removed, and then, 20 mL of a culture medium was added to the cells and stirred. The cells were centrifuged again at 1500 rpm for 5 minutes in a centrifuge. The supernatant was removed, and then, 10 mL of a culture medium was added to the cells and stirred. The whole amount was added to a 10-cm dish and incubated at 37° C. for 1 hour in a 5% CO2 environment. […] The solution with the adjusted lymphocyte density was inoculated at 4 mL/well to 2 wells of each 6-well plate. […] Then, the supernatant was recovered into a 1.5 mL Eppendorf tube and centrifuged at 8000 rpm for 5 minutes in a centrifuge. The supernatant was recovered into a fresh 1.5-mL Eppendorf tube and preserved at −20° C.
Human IL-6 of an ELISA kit was used in IL-6 measurement. 5× Coating Buffer A included in the assay kit was diluted 5-fold with distilled water. Capture Antibody diluted 200-fold with the Coating Buffer was added at 100 μL/well to a 96-well plate, and the plate was left standing overnight at 4° C.
The antibody solution was removed, and each well was washed four times. A very small amount of the reaction solution remaining in the plate was completely removed with Kim Towel. Then, ELISA Assay Diluent (BioLegend, Inc.) diluted 5-fold with distilled water was added at 200 μL/well, and the plate was left standing overnight at 4° C.
The solution was removed, and each well was washed four times. A very small amount of the reaction solution remaining in the plate was completely removed with Kim Towel. IL-6 standard protein was diluted with Assay Diluent to prepare dilution series of the IL-6 standard protein. The dilution series of the IL-6 standard protein and the 40° C. culture supernatant of the lymphocytes were added at 100 μL/well, and the plate was left standing at room temperature for 2 hours. The solution was removed, and each well was washed four times. A very small amount of the reaction solution remaining in the plate was completely removed with Kim Towel. Detection Antibody diluted 200-fold with Assay Diluent was added at 100 μL/well, and the plate was left standing at room temperature for 1 hour. […] The reaction was terminated by the addition of 2 N H2SO4 at 100 μL/well, followed by the absorbance measurement of the reaction solution in a plate reader at 450 nm.

[2] = system: CCL-2; assay: CCL-2 concentration in supernatant of lymphocytes under heat stress load (ELISA); type: cell-based, human
Description: 10 mL of human peripheral blood was collected and anti-coagulated with heparin, and 10 mL of PBS(−) was added thereto and stirred. 15 mL of Lymphocyte Separation Medium 1077 (PromoCell GmbH) was layered thereon so as not to mix blood thereinto, followed by blood separation at 1600 rpm for 30 minutes in a centrifuge. The mononuclear cell layer thus separated was collected into a dropper, added to 20 mL of a culture medium, and centrifuged at 1500 rpm for 5 minutes in a centrifuge. The supernatant was removed, and then, 20 mL of a culture solution was added to the cells and stirred. The cells were centrifuged again at 1500 rpm for 5 minutes in a centrifuge. The supernatant was removed, and then, 10 mL of a culture medium was added to the cells and stirred. The whole amount was added to a 10-cm dish and incubated at 37° C. for 1 hour in a 5% CO2 environment. […] The solution with the adjusted lymphocyte density was inoculated at 4 mL/well to 2 wells of each 6-well plate. […] Then, the supernatant was recovered into a 1.5-mL Eppendorf tube and centrifuged at 8000 rpm for 5 minutes in a centrifuge. […]
The solution was removed, and each well was washed four times. […] TMB Microwell Peroxidase Substrate was added at 100 μL/well, followed by the absorbance measurement of the reaction solution in a plate reader at 450 nm.

[3] = peripheral blood lymphocytes under heat stress load, vs DMSO, p<0.05

SMILES: CC(C)=CCC/C(C)=C/COc1ccc2ccc(=O)oc2c1 [auraptene, 7-geranyloxycoumarin]
- Pyrogenic factor ([1]; Table 2 summary, 40° C., inflammatory cytokines, e.g. IL-6 and CCL-2): Decreased
- IL-6 sample A ([1]; peripheral blood lymphocytes sample A, 40° C., auraptene 10 μM, non-addition 10 ± 1.1): 5 ± 0.3 pg/mL
- IL-6 sample B ([1]; peripheral blood lymphocytes sample B, 40° C., auraptene 10 μM, non-addition 18 ± 0.8): 10 ± 0.1 pg/mL
- production of IL-6 [1, 3]: significantly suppressed
- CCL-2 sample A ([2]; peripheral blood lymphocytes sample A, 40° C., auraptene 10 μM, non-addition 61 ± 0.2): 32 ± 1.7 pg/mL
- production of CCL-2 [2, 3]: significantly suppressed
